In paper PMC3217161 (2011):

Biological target: D-xylose isomerase (Streptomyces pseudogriseolus, UniProt P24300)
Test: competitive inhibition of D-xylose isomerization
Assay type: biochemical

Sequence of D-xylose isomerase (P24300 2-388): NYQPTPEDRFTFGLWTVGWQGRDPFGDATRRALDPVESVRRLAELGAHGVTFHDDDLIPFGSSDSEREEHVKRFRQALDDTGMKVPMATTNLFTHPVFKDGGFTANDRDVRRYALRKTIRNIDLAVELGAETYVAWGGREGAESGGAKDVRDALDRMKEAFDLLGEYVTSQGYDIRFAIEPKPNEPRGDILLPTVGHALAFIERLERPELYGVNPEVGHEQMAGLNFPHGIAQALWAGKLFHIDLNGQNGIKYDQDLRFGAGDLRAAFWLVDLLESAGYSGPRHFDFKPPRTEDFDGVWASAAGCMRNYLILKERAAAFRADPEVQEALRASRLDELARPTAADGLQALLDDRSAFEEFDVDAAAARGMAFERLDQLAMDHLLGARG

Ki: 3 mM
Compound: O=C[C@H](O)CO [DGA, D-glyceraldehyde]
